Key:
[1] = system: GFPP1-10 expressing A549 cells; experiment: mCherry and GFP expression in presence and absence of TMP; format: cell-based; details: cells transfected with mCherry-DHFR-P2A-GFPβ11, following addition of TMP, FIG. 7B
Description: The mCherry-DHFR-P2A-GFPβ11 peptide expression unit was introduced into GFPP1-10 expressing A549 cells and mCherry and GFP expression levels were examined in the presence and absence of TMP.
Indeed, the percentage of cells expressing mCherry upon TMP treatment was similar in cells transfected with an m-Cherry only plasmid and cells transfected with a plasmid comprising the mCherry-DHFR-P2A-GFPβ11 peptide expression unit (FIGS. 7C and 7E).

[2] = system: H9c2 cells; experiment: Mitochondrial respiration, Seahorse XF Cell Mito Stress Test flux analysis; format: cell-based; details: doxorubicin treatment; for mitochondrial respiration (oxygen consumption rate): FIG. 9I; for basal respiration: FIG. 9J; for ATP production: FIG. 9J-9M; for maximum respiration: FIG. 9K; for spare respiratory capacity: FIG. 9M; for proton leakage: FIG. 9N; for non-mitochondrial oxygen consumption: FIG. 9O
Method: Next, the effect of P110 expression on mitochondrial hyperfission was evaluated in the context of mitochondrial respiratory function. Briefly, oligomycin (2 μM), carbonyl cyanide p-trifluoromethoxyphenyl hydrazone (FCCP, 2 μM) and rotenone/antimycin A (0.5 μM), which were adjusted using the reagents in the Seahorse XF Cell Mito Stress Test Kit (103015-100, Agilent Technologies), were sequentially added to each well with 1×10^5 cells after baseline measurements with an XFe96 extracellular flux analyzer (Agilent Technologies, Santa Clara, CA, USA), and data were presented as oxygen consumption rate (pmol/min).

[3] = system: Drp1-Fis1; experiment: Immunoprecipitation with Fis1 followed by immunoblotting with Drp1; format: cell-based; details: doxorubicin treatment, FIG. 10I-10K
Chain of Drp1-Fis1 (O00429 whole entry): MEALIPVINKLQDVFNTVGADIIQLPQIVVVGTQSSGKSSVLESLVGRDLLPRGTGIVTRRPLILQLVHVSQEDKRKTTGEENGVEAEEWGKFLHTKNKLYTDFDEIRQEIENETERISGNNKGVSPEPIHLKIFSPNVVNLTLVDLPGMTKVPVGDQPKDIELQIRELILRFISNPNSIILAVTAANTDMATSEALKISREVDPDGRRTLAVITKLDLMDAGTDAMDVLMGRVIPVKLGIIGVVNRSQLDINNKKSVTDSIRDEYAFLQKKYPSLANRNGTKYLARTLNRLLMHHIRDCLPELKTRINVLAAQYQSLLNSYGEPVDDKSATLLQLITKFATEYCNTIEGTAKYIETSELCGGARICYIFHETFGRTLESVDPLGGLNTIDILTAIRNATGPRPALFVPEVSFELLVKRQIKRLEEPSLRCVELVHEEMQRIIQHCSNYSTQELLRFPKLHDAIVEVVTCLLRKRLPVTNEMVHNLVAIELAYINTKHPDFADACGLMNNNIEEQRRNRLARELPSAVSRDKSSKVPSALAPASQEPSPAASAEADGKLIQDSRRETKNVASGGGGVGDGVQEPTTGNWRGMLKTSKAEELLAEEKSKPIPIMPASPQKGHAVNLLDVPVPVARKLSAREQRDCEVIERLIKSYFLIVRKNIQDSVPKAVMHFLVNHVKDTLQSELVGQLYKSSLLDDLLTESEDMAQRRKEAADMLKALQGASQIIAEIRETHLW
Method: Association of Drp1 and Fis1 is an intracellular PPI that is associated with mitochondrial dysfunction. To determine whether interaction of Fis1 and Drp1 was associated with the accumulation of Drp1 at the mitochondrial membrane, immunoprecipitation with Fis1 followed by immunoblotting with Drp1 was performed.

[4] = system: H9c2 cells; experiment: Doxorubicin-induced hyperfission (MiNA) and cell death (DAPI/annexin5 FACS); format: cell-based
Method: The anti-apoptotic effect of peptide expression unit mRNA comprising the P110 coding sequence was assessed in H9c2 cells upon doxorubicin exposure, a treatment that induces mitochondrial stress, hyperfission, and cell death. Briefly, H92c cells were seeded on day 0 and lipofected with an mRNA of a peptide expression unit comprising P110 coding sequence on day 1 and treated with TMP. After 12 hours, the medium was changed, and the cells were treated with doxorubicin for 3 to 6 hours. As with LPS exposure assessments in Example 4, the effect of P110 on hyperfission was assessed via mitotracker green staining, followed by MiNA.
The increase in doxorubicin-induced fission was accompanied by an increase in footprint, a measure of mitochondrial mass, due to the expression of P110 from mRNA expression units, and by an increase in the length, number, and area of branching (FIGS. 9A-9F).

[5] = system: H9c2 cells; experiment: Western blot of apoptosis-associated proteins (cleaved caspase-3, cytochrome c, mitochondrial Drp1); format: cell-based; details: for Drp1 in mitochondrial fractions (accumulation/aggregation): doxorubicin exposure, FIG. 10G-10H
Method: (§1) P110-expressing cells counteracted doxorubicin-induced apoptosis as well as gene transfer-associated induction of cell death (FIGS. 10A-10B). Next, doxorubicin-induced activation of caspase-3, which is a cysteine-aspartic acid protease that plays a central role in the execution-phase of cell apoptosis, was evaluated.
Hyperfission-associated release of cytochrome c from mitochondria triggers apoptosis; therefore, the release of cytochrome c in response to doxorubicin was evaluated. […] Given that P110 inhibits the recruitment of Drp1 to the mitochondrial membrane during fission, Drp1 in mitochondrial fractions were evaluated to determine whether the introduction of P110 mRNA affected this mechanism.

[6] = system: H9c2 cells; experiment: Doxorubicin-induced apoptosis, FACS with DAPI and Annexin V; format: cell-based; details: doxorubicin-treated cells, FIG. 10A-10B
Method: as §1

[7] = system: H9c2 cells; experiment: LPS-induced hyperfission: mitotracker green/MiNA, MitoSOX, TMRM; format: cell-based; details: for mitochondrial ROS (MitoSOX): FIG. 8J-8K
Method: Next, lipopolysaccharide (LPS) was used as an external stressor to trigger hyperfission. Briefly, H92c cells were seeded on day 0 and lipofected with an mRNA of a peptide expression unit comprising P110 coding sequence on day 1 and treated with TMP. After 12 hours, the medium was changed, and the cells were treated with LPS for 12 hours and mitochondrial morphology of cells was evaluated using mitotracker green staining and Mitochondrial Network Analysis (MiNA). LPS-induced changes in mitochondrial reactive oxygen species (ROS) production were evaluated using MitoSOX staining. LPS-induced changes in mitochondrial membrane potential were evaluated using TMRM staining. For the purposes of this assessment, mCherry-positive cells were assumed to express transgenic P110, whereas mCherry-negative cells were assumed to lack transgenic P110 and were assessed separately (FIG. 8D). […] LPS treatment was associated with an increase in mitochondrial ROS, which was inhibited in P110-expressing cells (FIGS. 8J-8K), and with an increase in mitochondrial membrane potential per unit volume (FIGS. 8L-8N). Taken together, expression of P110 in cells suppressed mitophagy-related changes induced by LPS treatment.

[8] = molecular target: GFP β strand 1-10 (GFPβ1-10); experiment: cell-based or functional assay
[9] = doxorubicin 3 to 6 hours, FIG. 9A-9F

Row | Compound | mitochondrial respiration (oxygen consumption rate) [2] | basal respiration [2] | ATP production [2] | maximum respiration [2] | spare respiratory capacity [2] | proton leakage [2] | non-mitochondrial oxygen consumption [2] | Drp1 co-immunoprecipitated with Fis1 [3] | Drp1 in mitochondrial fractions (accumulation/aggregation) [5] | mitochondrial ROS (MitoSOX) ([7]; LPS treatment 12 hours) | other results
1 | COc1cc(Cc2cnc(N)nc2N)cc(OC)c1OC [TMP, trimethoprim] |  |  |  |  |  |  |  |  |  |  | mCherry expression (FACS) [1]: increased sharply
2 | COc1cccc2c1C(=O)c1c(O)c3c(c(O)c1C2=O)C[C@@](O)(C(=O)CO)C[C@@H]3O[C@H]1C[C@H](N)[C@H](O)[C@H](C)O1 [doxorubicin] | decreased | significantly decreased | significantly decreased | significantly decreased | significantly decreased | decrease | significantly decreased | significantly enhanced | strong accumulation |  | cell death, DAPI/annexin5 double positive cells (FACS) ([4]; doxorubicin-treated H9c2 cells, FIG. 9G-9H): ~15 % of cells
3 | DLLPRGT [P110] | attenuated | significant attenuation | significant attenuation | significant attenuation | comparable to that observed in untreated control cells | slightly improved | significant attenuation | restored to almost control levels | significantly prevented | inhibited | footprint, a measure of mitochondrial mass (MiNA) [4, 9]: increase; length, number, and area of branching (MiNA) [4, 9]: increase; doxorubicin-induced apoptosis (DAPI/Annexin V FACS) [6]: counteracted; indications of hyperfission: branching length, area of branching points, number of branching points (MiNA) ([7]; mCherry-positive cells, LPS 12 hours, FIG. 8D-8I): reversed indications of hyperfission; non-mitochondrial apoptotic pathways ([5]; doxorubicin): unaffected; cytochrome c release ([5]; doxorubicin, FIG. 10E-10F): completely suppressed; cleaved caspase-3 expression (western blot) ([5]; effects of gene transfer method and doxorubicin, FIG. 10C-10D): reduced
4 | GFP β strand 11 (GFPβ11) (peptide) |  |  |  |  |  |  |  |  |  |  | GFP-positive fraction of mCherry-positive cells (split GFP complementation), FACS, H9c2 cells [8]: 40%
5 | lipopolysaccharide [LPS] |  |  |  |  |  |  |  |  |  | increase | mitochondrial membrane potential per unit volume (TMRM) ([7]; LPS treatment 12 hours, FIG. 8L-8N): increase
